The values that follow come from ChEMBL document CHEMBL3991601, “The target landscape of clinical kinase drugs” (Science, 2017).

Assay [1] concerns the target Serine/threonine-protein kinase 26 (Homo sapiens, UniProt Q9P289).
Assay [2] has as its target T1, Discoidin domain-containing receptor 2 (Homo sapiens, UniProt Q16832).
T1 sequence (Q16832 whole entry): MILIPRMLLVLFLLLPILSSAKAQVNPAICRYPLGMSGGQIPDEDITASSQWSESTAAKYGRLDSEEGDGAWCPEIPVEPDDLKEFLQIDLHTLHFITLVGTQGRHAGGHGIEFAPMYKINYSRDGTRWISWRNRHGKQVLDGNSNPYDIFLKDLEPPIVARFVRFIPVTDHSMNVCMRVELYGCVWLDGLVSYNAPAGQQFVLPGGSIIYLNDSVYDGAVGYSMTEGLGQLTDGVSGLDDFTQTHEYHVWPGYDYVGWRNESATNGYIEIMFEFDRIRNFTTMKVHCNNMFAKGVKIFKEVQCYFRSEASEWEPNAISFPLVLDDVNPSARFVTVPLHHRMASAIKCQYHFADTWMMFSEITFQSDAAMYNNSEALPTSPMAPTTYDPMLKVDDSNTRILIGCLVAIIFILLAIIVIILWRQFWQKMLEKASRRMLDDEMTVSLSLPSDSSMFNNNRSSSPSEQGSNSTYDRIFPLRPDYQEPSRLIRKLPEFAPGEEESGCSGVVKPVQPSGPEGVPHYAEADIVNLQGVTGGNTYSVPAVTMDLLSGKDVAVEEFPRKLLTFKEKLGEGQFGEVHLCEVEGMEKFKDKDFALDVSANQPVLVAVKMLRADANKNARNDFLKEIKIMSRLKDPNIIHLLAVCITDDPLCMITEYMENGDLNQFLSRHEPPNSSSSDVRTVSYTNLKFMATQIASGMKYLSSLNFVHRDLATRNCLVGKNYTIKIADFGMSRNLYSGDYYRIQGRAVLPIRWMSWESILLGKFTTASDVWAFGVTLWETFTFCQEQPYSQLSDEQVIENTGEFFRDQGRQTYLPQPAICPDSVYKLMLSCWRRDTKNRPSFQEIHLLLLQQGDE

Assay [3] concerns the target DnaJ homolog subfamily A member 1 (Homo sapiens, UniProt P31689).
In assay [4] the target is T2, Phenylalanine--tRNA ligase beta subunit (Homo sapiens, UniProt Q9NSD9).
T2 sequence (Q9NSD9 whole entry): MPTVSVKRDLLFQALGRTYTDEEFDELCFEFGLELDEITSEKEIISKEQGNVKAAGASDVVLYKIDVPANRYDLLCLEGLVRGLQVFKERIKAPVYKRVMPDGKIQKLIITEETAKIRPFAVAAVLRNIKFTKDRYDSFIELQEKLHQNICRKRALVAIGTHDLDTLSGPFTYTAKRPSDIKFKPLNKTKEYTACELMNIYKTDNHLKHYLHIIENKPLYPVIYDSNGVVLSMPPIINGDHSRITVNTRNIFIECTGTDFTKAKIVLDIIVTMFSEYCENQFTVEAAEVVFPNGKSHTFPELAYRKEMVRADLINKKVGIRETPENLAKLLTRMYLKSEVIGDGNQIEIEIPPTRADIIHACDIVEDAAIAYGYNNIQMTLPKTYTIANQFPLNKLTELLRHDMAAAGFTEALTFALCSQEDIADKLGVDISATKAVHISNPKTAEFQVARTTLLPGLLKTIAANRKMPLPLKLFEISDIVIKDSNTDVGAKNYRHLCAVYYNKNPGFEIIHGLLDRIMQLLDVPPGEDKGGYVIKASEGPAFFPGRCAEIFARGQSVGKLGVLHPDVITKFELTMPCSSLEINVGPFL

Assay [5] addresses Dual specificity mitogen-activated protein kinase kinase 1 (Homo sapiens, UniProt Q02750).
The target in assay [6] is T3, Serine/threonine-protein kinase PLK4 (Homo sapiens, UniProt O00444).
T3 sequence (O00444 whole entry): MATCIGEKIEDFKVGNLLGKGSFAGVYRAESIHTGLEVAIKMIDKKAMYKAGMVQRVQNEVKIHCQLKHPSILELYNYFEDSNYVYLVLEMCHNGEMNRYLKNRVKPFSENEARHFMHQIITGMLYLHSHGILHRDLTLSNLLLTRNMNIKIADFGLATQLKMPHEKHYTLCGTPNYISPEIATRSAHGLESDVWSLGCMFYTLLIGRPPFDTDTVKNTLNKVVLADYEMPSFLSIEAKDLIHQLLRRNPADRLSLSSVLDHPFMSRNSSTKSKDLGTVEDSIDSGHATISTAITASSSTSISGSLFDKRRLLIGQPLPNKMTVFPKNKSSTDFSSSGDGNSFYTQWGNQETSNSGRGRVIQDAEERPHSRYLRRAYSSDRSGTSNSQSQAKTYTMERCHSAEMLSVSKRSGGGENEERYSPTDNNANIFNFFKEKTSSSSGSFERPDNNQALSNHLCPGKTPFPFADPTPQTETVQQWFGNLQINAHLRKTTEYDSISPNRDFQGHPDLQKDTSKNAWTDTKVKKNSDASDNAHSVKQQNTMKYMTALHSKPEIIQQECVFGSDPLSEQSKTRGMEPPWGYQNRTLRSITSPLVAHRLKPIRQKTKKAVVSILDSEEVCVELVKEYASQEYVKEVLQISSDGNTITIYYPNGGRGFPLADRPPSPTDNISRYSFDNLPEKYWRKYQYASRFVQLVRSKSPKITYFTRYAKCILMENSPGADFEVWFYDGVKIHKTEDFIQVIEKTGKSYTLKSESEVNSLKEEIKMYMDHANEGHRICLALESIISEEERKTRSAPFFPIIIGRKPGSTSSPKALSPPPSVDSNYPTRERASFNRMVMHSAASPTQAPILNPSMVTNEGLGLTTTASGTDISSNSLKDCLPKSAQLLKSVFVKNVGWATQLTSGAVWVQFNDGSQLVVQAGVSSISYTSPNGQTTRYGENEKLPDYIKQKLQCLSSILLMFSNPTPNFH

Active and inactive are the calls of the source. For most assays here, no stated cut-off is given here; in the data, actives have a measured Kd and inactives only a lower limit. A value given as a limit tells only on which side of the number the result lay.

Chain of Serine/threonine-protein kinase 26 (Q9P289 whole entry, the tested form may be a part): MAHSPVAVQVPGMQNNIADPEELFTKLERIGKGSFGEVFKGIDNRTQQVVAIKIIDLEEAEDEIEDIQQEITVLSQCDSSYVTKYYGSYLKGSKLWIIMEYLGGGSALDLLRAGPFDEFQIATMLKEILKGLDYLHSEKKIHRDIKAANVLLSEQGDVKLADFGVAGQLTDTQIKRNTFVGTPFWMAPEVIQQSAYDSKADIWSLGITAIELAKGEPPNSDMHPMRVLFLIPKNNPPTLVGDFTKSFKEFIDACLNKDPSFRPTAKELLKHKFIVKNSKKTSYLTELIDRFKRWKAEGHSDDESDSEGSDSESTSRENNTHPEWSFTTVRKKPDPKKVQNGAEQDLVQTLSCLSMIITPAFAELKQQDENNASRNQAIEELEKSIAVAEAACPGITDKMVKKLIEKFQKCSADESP
Chain of DnaJ homolog subfamily A member 1 (P31689 whole entry): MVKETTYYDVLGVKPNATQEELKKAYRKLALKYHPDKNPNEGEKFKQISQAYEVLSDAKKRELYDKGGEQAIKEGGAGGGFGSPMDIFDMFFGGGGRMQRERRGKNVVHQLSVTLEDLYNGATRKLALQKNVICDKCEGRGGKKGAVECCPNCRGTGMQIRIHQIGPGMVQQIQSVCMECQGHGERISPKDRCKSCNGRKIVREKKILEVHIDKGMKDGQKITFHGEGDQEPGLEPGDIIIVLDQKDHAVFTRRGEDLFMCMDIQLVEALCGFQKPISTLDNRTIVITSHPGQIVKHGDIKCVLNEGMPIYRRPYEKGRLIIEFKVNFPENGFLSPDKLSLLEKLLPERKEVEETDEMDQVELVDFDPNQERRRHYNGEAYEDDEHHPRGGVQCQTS
Chain of Dual specificity mitogen-activated protein kinase kinase 1 (Q02750 whole entry): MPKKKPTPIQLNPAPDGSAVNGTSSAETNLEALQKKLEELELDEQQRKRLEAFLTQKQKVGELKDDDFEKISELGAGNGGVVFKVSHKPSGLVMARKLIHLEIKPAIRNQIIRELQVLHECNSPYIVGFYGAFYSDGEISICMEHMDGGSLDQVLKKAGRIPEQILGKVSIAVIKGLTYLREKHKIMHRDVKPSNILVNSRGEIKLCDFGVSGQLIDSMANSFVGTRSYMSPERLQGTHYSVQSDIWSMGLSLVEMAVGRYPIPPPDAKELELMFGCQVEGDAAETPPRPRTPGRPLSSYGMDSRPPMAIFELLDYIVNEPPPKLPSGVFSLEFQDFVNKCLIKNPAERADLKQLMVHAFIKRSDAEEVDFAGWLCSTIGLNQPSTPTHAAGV

Take `C[C@H]1CNCCCN1S(=O)(=O)c1cccc2cncc(F)c12`: the Kd was > 30 µM (inactive) in assay [1]; > 30 µM (inactive) in assay [2]; > 30 µM (inactive) in assay [3]; > 30 µM (inactive) in assay [4]; > 30 µM (inactive) in assay [5]; 8.14 µM (active) in assay [6].

`CC(=O)c1cnc2ccc(-c3cc(Cl)c(O)c(Cl)c3)nc2c1N[C@H]1CC[C@H](CN(C)C)CC1`: the Kd in assay [1] is > 30 µM (inactive); in assay [2], 2.28 µM (active); in assay [3] it was > 30 µM (inactive); in assay [4] it was > 30 µM (inactive); in assay [5], 0.968 µM (active).

Turning to `CCNC(=O)C#Cc1ccc2c(c1)NC(=O)/C2=C(\Nc1ccc(CN(C)C)cc1)c1ccccc1`, the Kd in assay [1] is > 30 µM (inactive); in assay [3], > 30 µM (inactive); in assay [4], > 30 µM (inactive); in assay [6], 0.333 µM (active).

Take `C=CC(=O)N1CCC[C@H](n2c(=O)n(-c3ccc(Oc4ccccc4)cc3)c3c(N)ncnc32)C1`: the Kd in assay [1], in assay [2], in assay [3], in assay [4], in assay [5] and in assay [6] was > 30 µM (inactive) in each case.

For `Cc1nc2cc(-c3nn(C(C)C)c4ncnc(N)c34)ccc2o1`, the Kd in assay [1] is 2.19 µM (active); in assay [2], 0.139 µM (active); in assay [3], > 30 µM (inactive); in assay [4] it was > 30 µM (inactive); in assay [5] it was 3.01 µM (active); in assay [6], > 30 µM (inactive).

Turning to `COCc1c(-c2ccc(NC(=O)Nc3cc(C(F)(F)F)ccc3F)c(F)c2)c2c(N)ncnn2c1CN1CCOCC1`, the Kd in assay [1] was > 30 µM (inactive); in assay [2], 3.25 µM (active); in assay [3], > 30 µM (inactive); in assay [4] it was > 30 µM (inactive); in assay [5], > 30 µM (inactive); in assay [6], > 30 µM (inactive).

In the case of `COc1cc(Nc2ncc3c(n2)-c2ccc(Cl)cc2C(c2c(F)cccc2OC)=NC3)ccc1C(=O)O` [ALISERTIB], the Kd in assay [1], in assay [2] and in assay [4] was > 30 µM (inactive) each time.

Consider `CNC(=O)c1ccccc1Sc1ccc2c(/C=C/c3ccccn3)n[nH]c2c1` [AXITINIB], for which the Kd in assay [3] and in assay [4] was > 30 µM (inactive) each time.

Turning to `Cc1cc(C(=O)NOCCO)c(Nc2ccc(I)cc2F)n(C)c1=O` [AZD-8330], the Kd in assay [1], in assay [2], in assay [3], in assay [4] and in assay [6] was > 30 µM (inactive) in each case.

Regarding `Cn1cc(C2=C(c3cn(C4CCN(Cc5ccccn5)CC4)c4ccccc34)C(=O)NC2=O)c2ccccc21` [ENZASTAURIN], the Kd in assay [3] and in assay [4] was > 30 µM (inactive) in each case.

In the case of `C[C@@H](Oc1cc(-n2cnc3ccc(CN4CCN(C)CC4)cc32)sc1C(N)=O)c1ccccc1C(F)(F)F` [GSK-461364], the Kd in assay [3] and in assay [4] was > 30 µM (inactive) throughout.

With `CCn1cc(-c2ccnc3[nH]c(-c4cccc(CN(C)C)c4)cc23)c(-c2ccc(NC(=O)N(C)C)cc2)n1` [GSK-1070916], the Kd in assay [1] is > 30 µM (inactive); in assay [2], 1.27 µM (active); in assay [3] it was > 30 µM (inactive); in assay [4], > 30 µM (inactive); in assay [5], > 30 µM (inactive).

On to `Cc1[nH]c(/C=C2\C(=O)Nc3ccccc32)c(C)c1CCC(=O)O` [ORANTINIB], for which the Kd in assay [1] is > 30 µM (inactive); in assay [2], > 30 µM (inactive); in assay [3] it was > 30 µM (inactive); in assay [4] it was > 30 µM (inactive); in assay [5], 3.43 µM (active).

As for `NC(=O)c1c(OCc2c(F)cc(Br)cc2F)nsc1NC(=O)NCCCCN1CCCC1` [OSI-632], the Kd in assay [1] was > 30 µM (inactive); in assay [2] it was 0.669 µM (active); in assay [3], > 30 µM (inactive); in assay [4] it was > 30 µM (inactive).

For `CC(=O)NCC(=O)N1[C@@H]2CC[C@H]1c1ccc(Nc3ncc(C(F)(F)F)c(NC4CCC4)n3)cc12` [PF-03814735], the Kd in assay [1], in assay [2], in assay [3] and in assay [4] was > 30 µM (inactive) each time.

Consider `CNC(=O)c1cc(Oc2ccc(NC(=O)Nc3cc(C(C)(C)C)nn3-c3ccc4ncccc4c3)c(F)c2)ccn1` [REBASTINIB], for which the Kd in assay [1] was > 30 µM (inactive); in assay [3], > 30 µM (inactive); in assay [4], > 30 µM (inactive); in assay [5], > 30 µM (inactive); in assay [6] it was 4.09 µM (active).

Consider `O=C(NOCCO)c1cc(CN2OCCCC2=O)c(F)c(F)c1Nc1ccc(I)cc1F` [RO-4987655], for which the Kd in assay [3] and in assay [4] was > 30 µM (inactive) in each case.

On to `N#CC[C@H](C1CCCC1)n1cc(-c2ncnc3[nH]ccc23)cn1` [RUXOLITINIB], for which the Kd in assay [3] and in assay [4] was > 30 µM (inactive) in each case.

Turning to `CN1CCN(CCOc2cc(OC3CCOCC3)c3c(Nc4c(Cl)ccc5c4OCO5)ncnc3c2)CC1` [SARACATINIB], the Kd in assay [1], in assay [3], in assay [4], in assay [5] and in assay [6] was > 30 µM (inactive) throughout.

Turning to `CCS(=O)(=O)c1cccc(-c2cc(C(=O)NC3CCN(C)CC3)c(C)c3[nH]c4ncc(C)cc4c23)c1` [TAK-901], the Kd in assay [1] was > 30 µM (inactive); in assay [3], > 30 µM (inactive); in assay [4], > 30 µM (inactive); in assay [5] it was > 30 µM (inactive); in assay [6] it was 0.041 µM (active).

Regarding `Cn1ncc(Cl)c1-c1cc(C(=O)N[C@H](CN)Cc2ccc(F)c(F)c2)oc1Cl` [UPROSERTIB], the Kd in assay [2], in assay [3], in assay [4], in assay [5] and in assay [6] was > 30 µM (inactive) throughout.
